One may read the EC50 as the midpoint of the concentration-response curve.

The values below come from EP4664463A1, “COMPUTER-IMPLEMENTED METHOD FOR OLFACTORY PROPERTY PREDICTION” (Givaudan SA, priority 2024, dated 2025).

Substitutions are numbered along the chain they refer to. Like-named read-outs stand apart in the source and are kept apart here.

The test system of series [1] is OR2M2. The series is described as follows: Activation of modified OR2M2 by sulfur compounds in presence of copper (luciferase). To be noted: modified C-terminus. Type of series: cell-based, human. The text has this: The most pungent odorant in human axillary sweat with an ODT of 1 picogram / L air is 3-methyl-3-sulfanyl-hexanol (also known as 3-methyl-3-mercapto-hexanol) (Natsch et al. identification of Odoriferous Sulfanylalkanols in Human Axilla Secretions and Their Formation through Cleavage of Cysteine Precursors by a C-S Lyase Isolated from Axilla bacteria. […] 2004; 1:1058-1072). So far, no OR has been described which can selectively detect this key odorant leading to undesired axilla odor in human subjects. By screening a library of receptor variants with the C-terminal sequence SEQ ID NO: 86 in presence of copper against a library of 52 sulfur compounds (see example 5), a hitherto orphan receptor, OR2M2, was identified, which is activated by 3-methyl-3-mercapto-hexanol and closely related chemicals, but not by other sulfur odorants (Figure 19).

Series [2] has as its target T1, OR7D4 (Homo sapiens, UniProt Q8NG98, D296E/E302K/G299D).
T1 construct: expressed in transfected cells; host or cells: HEK293T cells stably expressing human RTP1S (V227I) and RTP2 (L220R)
T1 sequence (Q8NG98 with tags, fused parts or gaps D296E/G299D/E302K limits assumed): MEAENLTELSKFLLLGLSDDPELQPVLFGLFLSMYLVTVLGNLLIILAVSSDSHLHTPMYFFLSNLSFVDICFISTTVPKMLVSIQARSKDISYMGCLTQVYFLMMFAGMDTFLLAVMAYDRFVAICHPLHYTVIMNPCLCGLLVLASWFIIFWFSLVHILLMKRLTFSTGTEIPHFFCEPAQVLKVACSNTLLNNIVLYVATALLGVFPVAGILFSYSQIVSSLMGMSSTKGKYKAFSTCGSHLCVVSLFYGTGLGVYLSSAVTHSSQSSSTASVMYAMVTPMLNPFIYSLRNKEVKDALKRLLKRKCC
The series is described as follows: cell-based. The format is cell-based. To be noted: for EC50: read-out: Potency EC50. The source says:
(§1) To create an expression plasmid, an OR coding sequence fused at the end of TM7 to the desired C-terminus sequence was synthesized by a DNA synthesis service provider (BioCat GmbH, Germany) and inserted into pcDNA3.1(+) (Invitrogen, MA, USA) downstream of the CMV promoter sequence (SEQ ID NO: 82) using BamHI and Notl restriction sites. All the synthetic OR nucleotide sequences described below in Examples 1-15 further contained at their N-terminus a nucleotide sequence encoding a signal peptide (mmLucy-FLAG-rho, SeQ ID NOs: 80, 81) and at the C-terminus the bgh terminator sequence (SEQ ID NO: 83). All the OR expression plasmids also contain a Kozak sequence (GCCACC) between the BamHI restriction site and the start codon of the signal peptide. These plasmids thus contain a constitutively expressed OR gene.
Similarly, in Figure 7 the dose-response of OR7D4 is shown when tested both with androstenone and the closely related molecule androstenol. […] Thus, a better understanding of the receptive space of OR7D4 is possible based on the improved sensitivity of the assay provided by the modified variant.

Series [3] addresses T2, OR5B12 (Homo sapiens, UniProt Q96R08).
T2 construct: expressed in transfected cells; host or cells: HEK293T cells stably expressing human RTP1S (V227I) and RTP2 (L220R)
T2 sequence (Q96R08 1-314): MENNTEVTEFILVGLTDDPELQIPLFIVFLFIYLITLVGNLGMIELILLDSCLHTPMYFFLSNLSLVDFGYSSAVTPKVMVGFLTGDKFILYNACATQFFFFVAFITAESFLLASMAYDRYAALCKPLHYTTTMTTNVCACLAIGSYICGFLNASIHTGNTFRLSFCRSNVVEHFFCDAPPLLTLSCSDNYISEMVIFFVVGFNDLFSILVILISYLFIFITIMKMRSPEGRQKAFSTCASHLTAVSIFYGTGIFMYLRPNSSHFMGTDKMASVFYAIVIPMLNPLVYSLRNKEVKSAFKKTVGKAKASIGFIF
The series is described as follows: cell-based. The format is cell-based. The settings on record: wild-type; for EC50: read-out: Potency EC50.
Source text: as §1

The target in series [4] is T3, OR5B12 (Homo sapiens, UniProt Q96R08).
T3 construct: expressed in transfected cells; host or cells: HEK293T cells stably expressing human RTP1S (V227I) and RTP2 (L220R)
T3 sequence (Q96R08 with tags, fused parts or gaps): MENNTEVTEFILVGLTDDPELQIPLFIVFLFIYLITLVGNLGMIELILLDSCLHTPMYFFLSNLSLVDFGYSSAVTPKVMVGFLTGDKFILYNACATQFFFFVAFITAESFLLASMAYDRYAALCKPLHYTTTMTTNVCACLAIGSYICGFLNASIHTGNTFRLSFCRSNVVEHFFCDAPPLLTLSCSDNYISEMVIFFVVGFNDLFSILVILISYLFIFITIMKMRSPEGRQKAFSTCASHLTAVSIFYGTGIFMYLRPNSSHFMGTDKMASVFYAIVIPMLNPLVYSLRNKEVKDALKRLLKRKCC
The series is described as follows: cell-based. The format is cell-based. To be noted: for EC50: changed C-term SEQ ID NO: 86, read-out: Potency EC50; for Detection threshold; concentration for 2-fold induction: changed C-term. SEQ ID NO: 86.
Source text: as §1

Series [5] deals with OR5B12. The series is described as follows: cell-based. Type of series: cell-based, human.
Source text: as §1

Series [6] has as its target T4, OR10J5 (Homo sapiens, UniProt Q8NHC4).
T4 construct: expressed in transfected cells; host or cells: HEK293T cells stably expressing human RTP1S (V227I) and RTP2 (L220R)
T4 sequence (Q8NHC4 with tags, fused parts or gaps): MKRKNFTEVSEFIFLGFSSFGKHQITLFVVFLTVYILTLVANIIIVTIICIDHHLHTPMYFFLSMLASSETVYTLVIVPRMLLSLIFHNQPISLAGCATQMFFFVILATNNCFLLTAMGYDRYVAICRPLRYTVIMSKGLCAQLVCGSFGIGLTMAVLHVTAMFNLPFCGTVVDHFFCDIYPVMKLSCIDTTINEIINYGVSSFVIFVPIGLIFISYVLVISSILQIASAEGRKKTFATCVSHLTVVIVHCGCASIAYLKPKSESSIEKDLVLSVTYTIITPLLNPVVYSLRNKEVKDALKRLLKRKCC
The series is described as follows: cell-based. The format is cell-based. The settings on record: for EC50: changed C-term SEQ ID NO: 86, read-out: Potency EC50.
Source text: as §1

Series [7] addresses T5, OR10J5 (Homo sapiens, UniProt Q8NHC4).
T5 construct: expressed in transfected cells; host or cells: HEK293T cells stably expressing human RTP1S (V227I) and RTP2 (L220R)
T5 sequence (Q8NHC4 1-309): T4 sequence (Q8NHC4 with tags, fused parts or gaps) with K301C, L303V, L304V, K305G, K307N, C308I, C309S
The series is described as follows: cell-based. To be noted: for EC50: wild-type, read-out: Potency EC50. The format is cell-based.
Source text: as §1

Series [8] deals with OR10J5. The series is described as follows: cell-based. The format is cell-based, human.
Source text: as §1

Series [9] deals with T6, OR56A4 (Homo sapiens, UniProt Q8NGH8).
T6 construct: expressed in transfected cells; host or cells: HEK293T stably expressing human RTP1S(V227I) and RTP2(L220R)
T6 sequence (Q8NGH8 1-313): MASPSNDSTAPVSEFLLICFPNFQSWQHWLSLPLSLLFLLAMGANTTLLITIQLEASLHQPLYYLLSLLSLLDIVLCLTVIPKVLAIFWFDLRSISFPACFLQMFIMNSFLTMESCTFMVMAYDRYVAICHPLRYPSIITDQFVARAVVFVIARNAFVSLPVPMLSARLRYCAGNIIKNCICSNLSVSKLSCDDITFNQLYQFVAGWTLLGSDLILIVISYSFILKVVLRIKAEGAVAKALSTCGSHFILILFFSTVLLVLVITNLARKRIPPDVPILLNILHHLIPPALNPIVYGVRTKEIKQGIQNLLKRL
The series is described as follows: cell-based. Type of series: cell-based. To be noted: wild-type.
Source text: as §1
Activation of OR56A4 by acids of different chain length was further tested. […] Replacing the wild-type with the C-terminal sequence of the functional OR51 E1 did reduce activity. However, using the optimized sequence form Examples 1-5 led to a strong signal and much lower detection threshold upon addition of all three acids.

For series [10], the target named is T7, OR5A2 (Homo sapiens, UniProt Q8NGI9).
T7 construct: expressed in transfected cells; host or cells: HEK293T cells with stably integrated human RTP1S (V227I) and RTP2 (L220R)
T7 sequence (Q8NGI9 with tags, fused parts or gaps): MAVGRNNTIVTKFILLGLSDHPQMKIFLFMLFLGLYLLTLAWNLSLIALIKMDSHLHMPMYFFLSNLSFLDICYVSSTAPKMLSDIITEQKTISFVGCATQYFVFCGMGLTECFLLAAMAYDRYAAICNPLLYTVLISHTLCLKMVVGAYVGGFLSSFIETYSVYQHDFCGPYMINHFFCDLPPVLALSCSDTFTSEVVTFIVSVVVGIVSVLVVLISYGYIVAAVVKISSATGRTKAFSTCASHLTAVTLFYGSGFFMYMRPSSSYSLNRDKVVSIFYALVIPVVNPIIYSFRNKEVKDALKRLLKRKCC
The series is described as follows: Luciferase dose-response, wild-type vs changed C-terminus (SEQ ID NO: 86). To be noted: OR5A2 with SEQ ID NO: 86. The format is cell-based.
Source text: as §1

As to `CC1=CCC(C(C)(C)S)CC1` (stereo not drawn) [1-p-Menthene-8-thiol], the “activation of OR2M2” value in series [1] is on record as “activated”.
On the same count and under the same terms, the same measure for `CCCC(C)(S)CCO` (stereo not drawn) [3-methyl-3-sulfanyl-hexanol]: “activated”.
On to `C[C@]12CCC(=O)C[C@@H]1CC[C@@H]1[C@@H]2CC[C@]2(C)C=CC[C@@H]12` [Androstenone], for which, in series [2], the Comments on efficacy is 3-fold lower maximal induction for wild-type and the Fold-improvement potency amounted to 66. Besides, in series [2] (changed C-term SEQ ID NO: 86), the EC50 stood at 0.13 µM. Besides, in series [2] (wild-type), the EC50 was 8.44 µM.
As to `CCCCCC1C(=O)CCC1CC(=O)OC` (stereo not drawn) [Hedione HC], in [3], the “Detection threshold; concentration for 2-fold induction” value was found to be 96 µM and the EC50 came to 69 µM. In series [4], the EC50 came to 18.3 µM and the “Detection threshold; concentration for 2-fold induction” value came to 8.8 µM. In series [5], the Comments on efficacy is 4-fold lower maximal induction for wild-type, the Fold-improvement potency came out at 3.8 and the Fold-improvement threshold is recorded as 11.
Take `CCCCCC1C(=O)CCC1CC(=O)OC` (stereo not drawn) [Hedione]: in series [3], the “Detection threshold; concentration for 2-fold induction” value is reported as “n.i. >>( 250) µM” and the EC50 is > 250 µM. In [4], the EC50 is 58.3 µM and the “Detection threshold; concentration for 2-fold induction” value is listed as 29 µM. Besides, in [5], the Comments on efficacy result is reported as “Induction wild-type only 1.75-fold”, the Fold-improvement potency is listed as >5 and the Fold-improvement threshold is >9.
Turning to `C/C(=C\CCC=O)CCCC(C)(C)O` [Mahonial, (4E)-9-hydroxy-5,9-dimethyl-4-Decenal], in series [6], the “Detection threshold; concentration for 2-fold induction” value was found to be 0.65 µM and the EC50 was found to be 20 µM. In [7], the “Detection threshold; concentration for 2-fold induction” value is 7.42 µM and the EC50 was 46 µM. In series [8], this compound yielded a Fold-improvement potency of 2.3 and a Fold-improvement threshold of 11.5.
Take `C=C(C)C1CCC2=CC(=O)CC(C)C2(C)C1` (stereo not drawn) [Nootkatone, 5,6-Dimethyl-8-iso-propenylbicyclo-(4,4,0)-dec-1-en-3-one]: the “activation of OR2M2” value in [1] was “activated”.
In the case of `Cc1cc(CC(C)C)ccc1CCC=O` [Nympheal, 3-(4-isobutyl-2-methylphenyl)propanal], in series [6], the “Detection threshold; concentration for 2-fold induction” value is recorded as 5.64 µM and the EC50 was 6.2 µM. Moreover, in series [7], the “Detection threshold; concentration for 2-fold induction” value was “n.i. (>31 µM, at cytotoxic dose)” and the EC50 was > 31 µM. In series [8], the Comments on efficacy result is listed as “Only 1.8-fold induction for WT, but 5.5-fold for changed C-terminus”; the Fold-improvement potency was >>6; the Fold-improvement threshold was >>6.
For the compound `CCC(CC)C(=O)N(C)c1cccc(C)c1` [Paradisamide], in series [1], the “activation of OR2M2” value is recorded as “activated”.
In the case of `C[C@]12CC[C@@H](O)C[C@@H]1CC[C@@H]1[C@@H]2CC[C@]2(C)C=CC[C@@H]12` [androstenol], the “activation of OR7D4 wild-type vs modified” value in [2] is listed as “can only activate the modified version of the receptor”.
In the case of `CCCCCCCCCC(=O)O` [decanoic acid], the “activation of wild-type OR56A4” value in [9] is reported as “activated at high concentration”.
As to `CCOc1cc(C=O)ccc1O` [ethyl vanillin], the “response of the modified receptor” value in series [10] is recorded as “no response”.
Consider `CCCCCCCCC(=O)O` [nonanoic acid], for which, in [9], the “activation of wild-type OR56A4” value is “not”.
